Among the data in ChEMBL document CHEMBL1145690, “Antimalarial activity of tropical Meliaceae extracts and gedunin derivatives” (J Nat Prod, 1997) are IC50, Activity and viability values, retold here.

Values after ≈ are worked out from the molar mass of the structure shown. Active and inactive are the calls of the source. No cut-off for these calls is given here.

Broadly, the IC50 is the concentration needed to halve the response being measured. A higher IC50 goes with weaker potency.

Experiment [1] relates to Plasmodium falciparum. In words: Antimalarial activity against Plasmodium falciparum D6 by [3H]hypoxanthine uptake. In kind it is functional, organism-based.
Experiment [2] has as its system Plasmodium falciparum. In words: Antimalarial activity against Plasmodium falciparum W2 by [3H]hypoxanthine uptake. The format is functional, organism-based.
The test system of experiment [3] is Plasmodium falciparum. In words: Antimalarial activity against Plasmodium falciparum D6 by [3H]hypoxanthine uptake relative to gedunin. The format is functional.
The subject of experiment [4] is KB. As to the kind of experiment: Cytotoxicity against human KB cells assessed as viability at 20000 ng/ml. The format is functional. Particulars: read-out: Activity.
Experiment [5] has as its system KB. In words: Cytotoxicity against human KB cells. In kind it is functional, cell-based.
The test system of experiment [6] is Plasmodium falciparum. As to the kind of experiment: Antimalarial activity against Plasmodium falciparum. In kind it is functional, organism-based.
The test system of experiment [7] is Plasmodium falciparum. In words: Antimalarial activity against Plasmodium falciparum FCR3TC by radioisotope micro dilution assay. In kind it is functional, organism-based.
Experiment [8] relates to Plasmodium falciparum. In words: Antimalarial activity against Plasmodium falciparum at 50000 ng/ml. The format is functional, organism-based.

For the compound `CC(=O)O[C@@H]1C[C@H]2C(C)(C)C(=O)C=C[C@]2(C)[C@H]2CC[C@@]3(C)[C@H](c4coc(C(C)=O)c4)OC(=O)[C@H]4O[C@]43[C@@]21C`, the results for the IC50 in the experiment on Plasmodium falciparum [1], in the experiment on Plasmodium falciparum [2] and with KB [5] were 0.832 µg/mL (≈ 1.59 µM), 0.156 µg/mL (≈ 0.297 µM) and 10.9 µg/mL (≈ 20.8 µM), respectively. The compound also had an Activity in the experiment on Plasmodium falciparum [3] of 4.69%. The viability at 20 µg/mL with KB [4] stood at 38%.
Turning to `CC(=O)O[C@@H]1C[C@H]2C(C)(C)C(=O)C=C[C@]2(C)[C@H]2CC[C@@]3(C)[C@H](c4ccoc4C(C)=O)OC(=O)[C@H]4O[C@]43[C@@]21C`, the results for the IC50 in the experiment on Plasmodium falciparum [1], with Plasmodium falciparum [2] and with KB [5] were 0.133 µg/mL (≈ 0.254 µM), 0.039 µg/mL (≈ 0.0743 µM) and 9.4 µg/mL (≈ 17.9 µM), respectively. In the experiment with Plasmodium falciparum [3], this compound came in with an Activity of 29.38%. For the same compound, the viability at 20 µg/mL with KB [4] stood at 31%.
For the compound `CC(=O)O[C@@H]1C[C@H]2C(C)(C)C(=O)[C@@H]3O[C@@H]3[C@]2(C)[C@H]2CC[C@@]3(C)[C@H](c4ccoc4)OC(=O)[C@H]4O[C@]43[C@@]21C`, the IC50 with Plasmodium falciparum [1] amounted to 2.58 µg/mL (≈ 5.17 µM); in the experiment with Plasmodium falciparum [2] it was 0.98 µg/mL (≈ 1.97 µM). In the experiment on Plasmodium falciparum [3], this compound displayed an Activity of 0.93%. For the same compound, the viability at 20 µg/mL in the experiment on KB [4] was 81%.
Take `C[C@@H]1CC[C@H]2[C@@H](C)C(=O)O[C@@H]3O[C@@]4(C)CC[C@@H]1[C@]32OO4` [ARTEMISININ]: the IC50 with Plasmodium falciparum [1] was 0.0018 µg/mL (≈ 0.00638 µM); in the experiment with Plasmodium falciparum [2] it was 0.0005 µg/mL (≈ 0.00177 µM); in the experiment with KB [5], more than 20 µg/mL. Also, the Activity in the experiment on Plasmodium falciparum [3] stood at 2170%.
With `CCN(CC)CCCC(C)Nc1ccnc2cc(Cl)ccc12` (stereo unspecified) [CHLOROQUINE], the Activity in the experiment on Plasmodium falciparum [3] was determined as 3000%. Besides, the midpoint of inhibition in the experiment with KB [5], the IC50, lay at 17.4 µg/mL (≈ 54.4 µM).
Consider `CC1(C)C(=O)C=C[C@]2(C)[C@H]3CC[C@@]4(C)[C@H](c5ccoc5)OC(=O)[C@H]5O[C@]54[C@]3(C)C(=O)C[C@@H]12` [DEACETOXY-7-OXOGEDUNIN], for which the half-inhibitory concentration (IC50) in the experiment on Plasmodium falciparum [1] and with Plasmodium falciparum [2] was more than 10 µg/mL each time. For the same compound, in the experiment with Plasmodium falciparum [3], the Activity was less than 0.39%. In the experiment with KB [4], the viability at 20 µg/mL was determined as 99%.
As to `CC1(C)C(=O)C=C[C@]2(C)[C@H]3CC[C@@]4(C)[C@H](c5ccoc5)OC(=O)[C@H]5O[C@]54[C@]3(C)[C@H](O)C[C@@H]12` [DEACETYLGEDUNIN], the half-inhibitory concentration (IC50) was 2.61 µg/mL (≈ 5.92 µM) in the experiment on Plasmodium falciparum [1] and 1.28 µg/mL (≈ 2.91 µM) in the experiment with Plasmodium falciparum [2]. This compound had an Activity in the experiment on Plasmodium falciparum [3] of 1.5%. Moreover, the viability at 20 µg/mL in the experiment on KB [4] was determined as 39%.
With `CC(=O)O[C@@H]1C[C@H]2C(C)(C)C(=O)CC[C@]2(C)[C@H]2CC[C@@]3(C)[C@H](c4ccoc4)OC(=O)[C@H]4O[C@]43[C@@]21C` [DIHYDROGEDUNIN], the IC50 in the experiment with Plasmodium falciparum [6] is 2.63 µg/mL (≈ 5.43 µM); with Plasmodium falciparum [1] it was more than 10 µg/mL; in the experiment on Plasmodium falciparum [2], 0.84 µg/mL (≈ 1.73 µM). This compound gave an Activity with Plasmodium falciparum [3] of less than 0.39%. In addition, the viability at 20 µg/mL in the experiment on KB [4] turned out to be 71%.
Regarding `CC(=O)O[C@@H]1C[C@H]2C(C)(C)C(=O)C=C[C@]2(C)[C@H]2CC[C@@]3(C)[C@H](c4ccoc4)OC(=O)[C@H]4O[C@]43[C@@]21C` [GEDUNIN], the IC50 in the experiment with Plasmodium falciparum [7] was 0.8 µg/mL (≈ 1.66 µM); in the experiment on Plasmodium falciparum [6], 0.72 µg/mL (≈ 1.49 µM); with Plasmodium falciparum [1], 0.039 µg/mL (≈ 0.0808 µM); in the experiment with Plasmodium falciparum [2], 0.02 µg/mL (≈ 0.0414 µM); in the experiment with KB [5] it was 2.3 µg/mL (≈ 4.77 µM). Further, the viability at 20 µg/mL in the experiment with KB [4] stood at 32%.
With `CC(=O)O[C@@H]1C[C@H]2C(C)(C)C(=O)CC[C@]2(C)[C@H]2CC[C@@]3(C)[C@H](C4CCOC4)OC(=O)[C@H]4O[C@]43[C@@]21C` (stereo partly specified) [HEXAHYDROGEDUNIN], the IC50 with Plasmodium falciparum [1] amounted to 10 µg/mL (≈ 20.5 µM); in the experiment on Plasmodium falciparum [2] it was 2.13 µg/mL (≈ 4.36 µM). The compound also displayed an Activity with Plasmodium falciparum [3] of 0.39%. Also, in the experiment with KB [4], the viability at 20 µg/mL was found to be 99%.
On to `CCOC(=O)[C@H]1[C@@H](OC(C)=O)[C@@H]2[C@@]3(C)C=CC(=O)[C@@](C)(C(=O)OC)C3=CC(=O)[C@@]2(C)[C@@]23O[C@@H]2C[C@@H](c2ccoc2)[C@]13C` [HIRITIN], for which the concentration for half-maximal inhibition (IC50) with Plasmodium falciparum [1] is 0.173 µg/mL (≈ 0.298 µM); in the experiment with Plasmodium falciparum [2], 0.096 µg/mL (≈ 0.165 µM); with KB [5], 0.5 µg/mL (≈ 0.861 µM). Further, in the experiment on Plasmodium falciparum [3], the Activity was 22.6%. The viability at 20 µg/mL in the experiment on KB [4] was found to be 4.9%.
In the experiment with Plasmodium falciparum [7], `CC1(C)O[C@H]2CC(=O)OC[C@]23[C@H]2CC[C@@]4(C)[C@H](c5ccoc5)OC(=O)[C@H]5O[C@]54[C@]2(C)C(=O)C[C@@H]13` [LIMONIN] showed an IC50 of more than 100 µg/mL. Moreover, the result in the experiment on Plasmodium falciparum [8] was inactive.
For the compound `OC(c1cc(C(F)(F)F)nc2c(C(F)(F)F)cccc12)C1CCCCN1` (stereo unspecified) [MEFLOQUINE], the IC50 turned out to be 0.0075 µg/mL (≈ 0.0198 µM) with Plasmodium falciparum [1], 0.0014 µg/mL (≈ 0.0037 µM) in the experiment with Plasmodium falciparum [2] and 3.5 µg/mL (≈ 9.25 µM) in the experiment on KB [5]. This compound registered an Activity with Plasmodium falciparum [3] of 521%.
In the experiment on Plasmodium falciparum [6], `COC(=O)C[C@H]1[C@]2(C)C3=C(C)[C@H](c4ccoc4)C[C@H]3O[C@@H]2[C@@H]2OC(=O)[C@]3(C)C=CC(=O)[C@@]1(C)[C@@H]23` [NIMBOLIDE] gave a half-inhibitory concentration (IC50) of 1.74 µg/mL (≈ 3.73 µM).
Regarding `C=C[C@H]1CN2CC[C@H]1C[C@H]2[C@H](O)c1ccnc2ccc(OC)cc12` [QUININE], the values for the IC50 in the experiment with Plasmodium falciparum [2] and in the experiment with KB [5] were 0.0349 µg/mL (≈ 0.108 µM) and more than 20 µg/mL, respectively. In the experiment with Plasmodium falciparum [3], this compound gave an Activity of 264%.
Regarding `CC(=O)O[C@@H]1C[C@H]2C(C)(C)C(=O)C=C[C@]2(C)[C@H]2CC[C@@]3(C)[C@H](C4CCOC4)OC(=O)[C@H]4O[C@]43[C@@]21C` (stereo partly specified) [TETRAHYDROGEDUNIN], the half-maximal inhibitory concentration (IC50) in the experiment with Plasmodium falciparum [1] was 2.5 µg/mL (≈ 5.14 µM); in the experiment on Plasmodium falciparum [2], 0.9 µg/mL (≈ 1.85 µM). The compound also gave an Activity in the experiment on Plasmodium falciparum [3] of 1.56%. For the same compound, the viability at 20 µg/mL with KB [4] stood at 81%.
Take `CC(=O)O[C@@H]1C[C@H]2C(C)(C)[C@@H](O)CC[C@]2(C)[C@H]2CC[C@@]3(C)[C@H](c4ccoc4)OC(=O)[C@H]4O[C@]43[C@@]21C` [beta-DIHYDROGEDUNOL]: the half-maximal inhibitory concentration (IC50) with Plasmodium falciparum [1] was determined as 4.21 µg/mL (≈ 8.65 µM); in the experiment on Plasmodium falciparum [2] it was 2.44 µg/mL (≈ 5.01 µM). The same compound registered an Activity in the experiment on Plasmodium falciparum [3] of 0.93%. In addition, the viability at 20 µg/mL in the experiment on KB [4] was found to be 69%.
